Each block holds one molecule with its values, some of them ahead of it.
Columns and labels:
[1] = biological target: T1, CCR2 (Homo sapiens, UniProt P41597); assay: MCP-1-induced CCR2 internalization / CCR2 receptor occupancy on monocytes (flow cytometry); format: cell-based
T1 construct: endogenous in cells; host or cells: monocytes within PBMCs from HIV+ and HIV- subjects
T1 sequence (P41597 1-360 isoform P41597-2): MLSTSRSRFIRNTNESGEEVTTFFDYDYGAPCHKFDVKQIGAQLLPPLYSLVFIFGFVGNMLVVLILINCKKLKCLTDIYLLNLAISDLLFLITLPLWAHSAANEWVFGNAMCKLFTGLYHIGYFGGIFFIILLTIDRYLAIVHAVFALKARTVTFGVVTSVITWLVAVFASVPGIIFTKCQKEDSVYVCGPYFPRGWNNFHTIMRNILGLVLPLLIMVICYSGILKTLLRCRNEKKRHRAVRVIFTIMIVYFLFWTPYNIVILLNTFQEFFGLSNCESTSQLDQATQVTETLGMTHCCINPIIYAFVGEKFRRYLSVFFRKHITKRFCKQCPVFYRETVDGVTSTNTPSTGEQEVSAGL
Procedure: (§1) The capacity of each drug to inhibit CCR5 or CCR2 internalization was evaluated. Cell-surface expression of CCR5 and CCR2 was assessed by flow cytometry, and fluorescence values were converted into molecules of equivalent soluble fluorescence (MESF).

[2] = tested on: thioglycollate-induced peritonitis (monocyte/macrophage and leukocyte recruitment); assay: Mouse thioglycollate-induced peritonitis model: peritoneal lavage cell counts, body weight; format: in vivo
Procedure: Summary: The mouse thioglycollate induced peritonitis model is a commonly used preclinical model to assess the recruitment of […] cells and to assess the activation of macrophages.
Dexamethasone was used as a positive control in this experiment as it is a corticosteroid known to reduce inflammation in a variety of animal models. Murine inflammation models indicate that the effective dose range for dexamethasone, when administered orally, is 0.3 to 3 mg/kg QD. On this basis, an intermediate dose of 1 mg/kg was chosen for this particular study.
The lavage was repeated with a second injection of 2.5 mL via the initial puncture site and the samples were pooled for each animal.
The lavage fluid was placed on wet ice pending processing for total and differential cell counts using the Advia analyzer. Following the lavage collection, a blood sample (0.7 mL) was collected from each mouse by intracardiac puncture or from the vena cava (collection time was recorded). 0.5 mL of blood was placed in an EDTA tube, transferred to clinical pathology and analyzed for differential cell counts using the Advia analyzer. 0.2 mL of blood was placed in a K2EDTA tube and processed to plasma. The plasma was collected by centrifugation (3000 rpm for 10 minutes at 4° C.) and placed on dry ice. […] After blood collection, the animals were then exsanguinated by sectioning of the abdominal aorta.
Statistical Analysis: One-way ANOVA with post-hoc Dunnett's statistical analysis was performed on differential cell counts obtained from lavage and blood samples. The analysis was performed in comparison to Group 2.

[3] = biological target: T2, CCR5 (Homo sapiens, UniProt P51681); assay: Inhibition of chemokine binding to CCR5-expressing CHO cells
T2 sequence (P51681 whole entry): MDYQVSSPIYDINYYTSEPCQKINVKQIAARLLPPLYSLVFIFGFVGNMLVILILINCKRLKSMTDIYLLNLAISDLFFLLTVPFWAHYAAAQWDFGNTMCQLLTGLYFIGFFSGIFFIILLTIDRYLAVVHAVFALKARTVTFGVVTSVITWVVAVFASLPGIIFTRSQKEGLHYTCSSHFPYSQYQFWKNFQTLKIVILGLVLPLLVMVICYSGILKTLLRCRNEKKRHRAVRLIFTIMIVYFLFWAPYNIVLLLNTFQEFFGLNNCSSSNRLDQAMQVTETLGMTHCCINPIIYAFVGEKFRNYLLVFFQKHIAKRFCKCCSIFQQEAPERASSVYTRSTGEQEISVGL

[4] = Solubility of cenicriviroc mesylate in solvents and aqueous solution; format: physicochemical
Source text: In one embodiment, the acid addition salt of cenicriviroc is cenicriviroc mesylate, e.g., (5)-8-[4-(2-Butoxyethoxy)phenyl]-1-isobutyl-N-(4-{[(1-propyl-1H-imidazol-5-yl)methyl]sulfinyl}phenyl)-1,2,3,4-tetrahydro-1-benzazocine-5-carboxamide monomethanesulfonoate. In one embodiment, the cenicriviroc mesylate is a crystalline material, such as a pale greenish-yellow crystalline powder.

[5] = tested on: HIV-1 BaL; assay: Intracellular strong-stop HIV DNA in PM-1 cells infected with HIV-1 BaL; format: cell-based; details: 4 hrs, CVC 20 nM, MVC 50 nM
Procedure: Both drugs were incubated with PM-1 cells for 1 hr at 37 C prior to the addition of virus. 500 ng of p24 antigen of HIV-1 BaL were incubated per 5×10^5 cells in 1 ml of R10 media. Virus only controls, described as “no cell” in the text, were used to measure viral decay. Viral adsorption was measured in the no-drug controls, whereby 500 ng of p24 Ag of HIV-1 Bal were added per 5×10^5 PM-1 cells that were pre-incubated at 37 C for 1 hr in the absence of drug treatment. Each drug treatment and control was performed in duplicate. Viral RNA was extracted from 140 μl of supernatant fluid using the QIAamp Viral RNA mini kit according to manufacturer's instructions. Samples were stored at −80 C until analysis. Supernatant viral loads were measured using quantitative real-time reverse transcription PCR (qRT-PCR) with the primers US1SSF (5′-[…]-3′), US1SSR (5′-[…]-3′) and US1SS probe (5′-(FAM) […]) and the Invitrogen qRT-PCR Supermix Kit. […] RNA copy number was quantified by use of 10-fold serial dilutions of pBaL/wt to generate standard curves for each assay and calibrated against samples with known copy numbers from previous studies.
Intracellular DNA qPCR. Total DNA was extracted, quantified, and stored at −80 C. Intracellular strong-stop DNA levels were quantified with the US1SS primer/probe set described above. […]

[6] = tested on: HIV-1 BaL; assay: Extracellular virus (viral RNA, p24) in culture fluids of PM-1 cells exposed to HIV-1 BaL; format: cell-based; details: 4 hrs post-infection, CVC 20 nM, MVC 50 nM
Source text: Cells. PM-1 cells that express CD4, CCR5, and CXCR4 were maintained in RPMI-1640 medium containing 10% fetal bovine serum (R10 medium) at 37C, 5% CO2. 293T cells used for transfection were maintained in DMEM at 10% FBS, L-glutamine, and antibiotics (D10 medium) at 37C, 5% CO2. Virus Stocks. HIV-1 BaL virus was produced by transfecting 293T cells with the plasmid pWT/BaL. Lipofectamine 2000 was used as a transfection agent. Culture supernatants were collected at 48 hrs post-transfection, filtered through a 0.45 μm pore filter, and treated with 50 units of benzonase per ml of virus stock for 20 minutes at 37C to remove contaminating plasmid DNA. Virus stocks were frozen at −80C to halt benzonase activity. Benzonase-treated virus stocks were propagated in cord blood mononuclear cells (CBMCs). CBMCs were stimulated for 72 h with phytohemagluttinin (PHA-M) in R10 medium prior to infection with HIV-1 BaL. The viral amplification culture was subsequently grown in R10 supplemented with interleukin 2 (IL-2) and incubated at 37C, 5% CO2.
Both drugs were incubated with PM-1 cells for 1 hr at 37 C prior to the addition of virus. 500 ng of p24 antigen of HIV-1 BaL were incubated per 5×10^5 cells in 1 ml of R10 media. Virus only controls, described as “no cell” in the text, were used to measure viral decay. Viral adsorption was measured in the no-drug controls, whereby 500 ng of p24 Ag of HIV-1 Bal were added per 5×10^5 PM-1 cells that were pre-incubated at 37 C for 1 hr in the absence of drug treatment. Each drug treatment and control was performed in duplicate. Viral RNA was extracted from 140 μl of supernatant fluid using the QIAamp Viral RNA mini kit according to manufacturer's instructions. Samples were stored at −80 C until analysis. Supernatant viral loads were measured using quantitative real-time reverse transcription PCR (qRT-PCR) with the primers US1SSF (5′-[…]-3′), US1SSR (5′-[…]-3′) and US1SS probe (5′-(FAM) […]) and the Invitrogen qRT-PCR Supermix Kit. Cycling parameters were: 50° C. for 15 minutes, 95° C. for 10 minutes, followed by 50 cycles of 95° C. for 15 seconds, and 60° C. for 1 minute. All values are the result of replicate testing over 2 independent experiments. RNA copy number was quantified by use of 10-fold serial dilutions of pBaL/wt to generate standard curves for each assay and calibrated against samples with known copy numbers from previous studies.

[7] = biological target: T2, CCR5; assay: RANTES-induced CCR5 internalization / CCR5 receptor occupancy in PBMCs (flow cytometry); format: cell-based
Procedure: as §1

Concentration required to reach >80% CCR2 receptor occupancy (average) [1]: 18 nM
Molecule: CSc1ccc(C(=O)N[C@@H]2CCCC[C@@H]2NC(=O)CNC(=O)c2cc(C(F)(F)F)ccc2NC(=O)NC(C)C)cc1 [BMS-22, reference compound]
CCR2 cell-surface expression ([1]; in the absence of MCP-1): slightly increased CCR2 cell-surface expression

Molecule: C[C@@H]1C[C@H]2[C@@H]3CCC4=CC(=O)C=C[C@]4(C)[C@@]3(F)[C@@H](O)C[C@]2(C)[C@@]1(O)C(=O)CO [Dexamethasone, dexamethasone, reference compound]
Decrease in monocytes in peritoneal lavage vs thioglycollate control ([2]; Group 7, 1 mg/kg oral): 38.1% | Decrease in total leukocyte counts in peritoneal lavage vs thioglycollate control ([2]; Group 7, 1 mg/kg oral): 26.6% | Body weights, Days 1 to 6 ([2]; mouse, in vivo): decreased slightly

IC50, inhibition of RANTES binding to CCR5-expressing cells ([3]; CHO cells): no effect on binding of RANTES
Molecule: CCCCOCCOc1ccc(-c2ccc3c(c2)C=C(C(=O)Nc2ccc(SC)cc2)CCCN3CC(C)C)cc1 [M-II]

IC50 relative to the IC50 of CVC (RANTES binding to CCR5) [3]: approximately 2 fold | IC50 ([3]; CHO cells, read-out: IC50, inhibition of RANTES binding to CCR5-expressing cells): 6.5 nM
Molecule: CCCCOCCOc1ccc(-c2ccc3c(c2)C=C(C(=O)Nc2ccc(S(=O)(=O)Cc4cncn4CCC)cc2)CCCN3CC(C)C)cc1 [M-I]

Molecule: (5)-8-[4-(2-Butoxyethoxy)phenyl]-1-isobutyl-N-(4-{[(1-propyl-1H-imidazol-5-yl)methyl]sulfinyl}phenyl)-1,2,3,4-tetrahydro-1-benzazocine-5-carboxamide monomethanesulfonoate [cenicriviroc mesylate]
Solubility ([4]; 99.5% ethanol): sparingly soluble | Solubility ([4]; acetonitrile, 1-octanol, tetrahydrofuran): slightly soluble | Solubility ([4]; ethyl acetate and diethylether): practically insoluble | Solubility ([4]; glacial acetic acid, methanol, benzyl alcohol, dimethylsulfoxide, N,N-dimethylformamide): freely soluble | Solubility in aqueous solution ([4]; pH 1 to 2): freely soluble | Solubility in aqueous solution ([4]; pH 3): sparingly soluble | Solubility in aqueous solution ([4]; pH 4 to 13 and in water): practically insoluble | Solubility ([4]; pyridine and acetic anhydride): soluble

Molecule: Maraviroc [MVC, reference compound]
Relative intracellular strong-stop HIV DNA level compared to no drug control [5]: 0.02 | p24 antigen level in culture fluids ([6]; baseline 506 ng/ml): 520 ng/mL | Viral RNA in culture fluids ([6]; baseline 1.19×10^10): 1.67×10^10 copies/ml | CCR5 receptor occupancy at saturation ([7]; CD4+ T cells): ~86% | Effective concentration at which saturation of CCR5 was reached ([7]; CD4+ T cells): 12.5 nM | CCR5 receptor occupancy at saturation ([7]; CD8+ T cells): ~87% | Effective concentration at which saturation of CCR5 was reached ([7]; CD8+ T cells): 12.5 nM | Cell-surface expression of CCR5 ([7]; in the absence of RANTES): increased cell-surface expression of CCR5

Reference: US20180110754A1, “CENICRIVIROC FOR THE TREATMENT OF FIBROSIS” (Tobira Therapeutics, Inc., priority 2015, published 2018)
